The source made the active and inactive calls. The calls are words filed in the database; no cut-off is given here.
Legend:
[1] = Half life in Sprague-Dawley rat at 2 mg/kg, iv administered as single dose through tail vein measured upto 24 hrs post dose by UPLC-MS/MS analysis; type: ADME, organism-based; details: in vivo
HUVEC = assay: Cytotoxicity against HUVEC cells assessed as reduction in cell viability at upto 10 uM incubated for 48 hrs by MTT assay; type: toxicity, cell-based; details: human
[2] = Oral bioavailability in Sprague-Dawley rat at 25 mg/kg formulated using SMEDDS administered once via gavage measured upto 24 hrs post dose by UPLC-MS/MS analysis; type: ADME, organism-based; details: in vivo
[3] = Tmax in Sprague-Dawley rat at 25 mg/kg, po formulated using SMEDDS administered once via gavage measured upto 24 hrs post dose by UPLC-MS/MS analysis; type: ADME, organism-based; details: in vivo
Histone deacetylase 4 = Histone deacetylase 4 (Homo sapiens, UniProt P56524); assay: Inhibition of human HDAC4 using Boc-Lys(trifluoroacetyl)-AMC as flurogenic substrate
Chain of Histone deacetylase 4 (P56524 whole entry): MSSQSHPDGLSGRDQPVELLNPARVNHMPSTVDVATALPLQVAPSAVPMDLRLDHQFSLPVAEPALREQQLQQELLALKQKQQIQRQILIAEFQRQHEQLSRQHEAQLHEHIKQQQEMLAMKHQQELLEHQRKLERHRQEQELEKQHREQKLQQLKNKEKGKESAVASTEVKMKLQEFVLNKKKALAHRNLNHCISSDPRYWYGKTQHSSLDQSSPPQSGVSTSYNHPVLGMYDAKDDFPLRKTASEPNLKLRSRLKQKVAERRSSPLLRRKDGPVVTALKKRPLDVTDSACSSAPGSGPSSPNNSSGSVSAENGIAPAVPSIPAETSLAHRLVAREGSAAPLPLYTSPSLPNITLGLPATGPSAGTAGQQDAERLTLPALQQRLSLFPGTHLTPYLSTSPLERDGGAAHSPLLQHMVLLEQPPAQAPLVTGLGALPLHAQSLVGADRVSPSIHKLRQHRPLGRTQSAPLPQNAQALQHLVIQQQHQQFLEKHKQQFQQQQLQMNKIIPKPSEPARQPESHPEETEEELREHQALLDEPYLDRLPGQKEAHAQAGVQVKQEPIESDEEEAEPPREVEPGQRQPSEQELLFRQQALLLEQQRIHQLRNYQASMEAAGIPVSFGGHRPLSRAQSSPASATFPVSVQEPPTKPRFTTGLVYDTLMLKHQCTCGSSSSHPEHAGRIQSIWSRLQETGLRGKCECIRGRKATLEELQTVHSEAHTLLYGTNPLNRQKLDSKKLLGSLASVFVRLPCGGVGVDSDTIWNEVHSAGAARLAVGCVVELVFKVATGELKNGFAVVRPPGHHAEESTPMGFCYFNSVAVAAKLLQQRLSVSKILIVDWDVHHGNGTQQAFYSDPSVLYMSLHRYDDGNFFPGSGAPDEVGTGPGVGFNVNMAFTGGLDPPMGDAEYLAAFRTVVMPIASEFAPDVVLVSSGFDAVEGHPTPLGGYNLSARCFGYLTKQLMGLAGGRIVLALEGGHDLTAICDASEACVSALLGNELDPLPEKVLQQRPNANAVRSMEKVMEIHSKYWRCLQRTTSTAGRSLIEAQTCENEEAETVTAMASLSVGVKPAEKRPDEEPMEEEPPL

Homo sapiens [4] = organism: Homo sapiens; assay: Selectivity ratio of IC50 for human HDAC10 to IC50 for human HDAC6
[5] = Metabolic stability in Beagle dog hepatocyte assessed as parent compound remaining at 10 uM by LC-MS/MS analysis; type: ADME, cell-based, Canis lupus familiaris; details: hepatocytes, read-out: Stability
Homo sapiens [6] = organism: Homo sapiens; assay: Selectivity ratio of IC50 for […] IC50 for human full length recombinant MAO-B
Homo sapiens [7] = organism: Homo sapiens; assay: Selectivity ratio of IC50 for human HDAC7 to IC50 for human HDAC6
[8] = Metabolic stability in Beagle dog hepatocyte assessed as half life at 10 uM by LC-MS/MS analysis; type: ADME, cell-based, Canis lupus familiaris; details: hepatocytes
PC-3 [9] = assay: Antiproliferative activity against human PC-3 cells assessed as cell growth inhibition at upto 10 uM incubated for 48 hrs by MTT assay; type: functional, cell-based
Homo sapiens [10] = organism: Homo sapiens; assay: Selectivity ratio of IC50 for human HDAC8 to IC50 for human HDAC6
[11] = Metabolic stability in human hepatocyte assessed as parent compound remaining at 10 uM incubated for 240 mins by LC-MS/MS analysis; type: ADME, cell-based; details: hepatocytes, read-out: Stability
PC-3 [12] = assay: Induction of cell death in LSD1 knockdown human PC-3 cells assessed as activation of procaspase-9 at 1.25 to 10 uM by Western blot analysis; type: functional, cell-based; details: dose 1.25-10 µM
[13] = Metabolic stability in Sprague-Dawley rat hepatocyte assessed as half life at 10 uM by LC-MS/MS analysis; type: ADME, cell-based; details: hepatocytes
[14] = AUC (0 to infinity) in Sprague-Dawley rat at 25 mg/kg, po administered once via gavage measured upto 24 hrs post dose by UPLC-MS/MS analysis; type: ADME, organism-based; design: time < 24 hrs, dose 25 mg/kg, route po; details: in vivo
[15] = Cmax in Sprague-Dawley rat at 25 mg/kg, po formulated using SMEDDS administered once via gavage measured upto 24 hrs post dose by UPLC-MS/MS analysis; type: ADME, organism-based; design: dose 25 mg/kg, time < 24 hrs, route po; details: in vivo
Histone deacetylase 8 = molecular target: T1, Histone deacetylase 8 (Homo sapiens, UniProt Q9BY41); assay: Inhibition of human HDAC8 (379 to 382 residues) using RHKAcKAc as flurogenic substrate
T1 sequence (Q9BY41 whole entry): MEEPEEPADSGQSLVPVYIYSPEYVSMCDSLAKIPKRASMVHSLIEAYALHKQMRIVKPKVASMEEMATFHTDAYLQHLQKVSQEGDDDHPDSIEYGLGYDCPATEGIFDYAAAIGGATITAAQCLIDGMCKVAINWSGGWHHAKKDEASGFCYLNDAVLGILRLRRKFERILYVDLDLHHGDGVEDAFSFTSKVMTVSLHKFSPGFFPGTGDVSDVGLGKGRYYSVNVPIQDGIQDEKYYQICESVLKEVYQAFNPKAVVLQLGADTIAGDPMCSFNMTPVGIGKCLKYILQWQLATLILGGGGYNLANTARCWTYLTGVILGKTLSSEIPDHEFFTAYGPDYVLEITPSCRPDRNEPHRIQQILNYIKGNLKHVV

Homo sapiens [16] = organism: Homo sapiens; assay: Selectivity ratio of IC50 for human HDAC9 to IC50 for human HDAC6
[17] = Tmax in Sprague-Dawley rat at 25 mg/kg, po administered once via gavage measured upto 24 hrs post dose by UPLC-MS/MS analysis; type: ADME, organism-based; details: in vivo
Homo sapiens [18] = organism: Homo sapiens; assay: Selectivity ratio of IC50 for human HDAC4 to IC50 for human HDAC6
PC-3 [19] = assay: Upregulation of acetyl-tubulin in human PC-3 cells at 0.625 to 5 uM by Western blot analysis; type: functional, cell-based; details: dose 0.625-5 µM
DU-145 [20] = assay: Upregulation of acetyl-histone H3 in human DU-145 cells at 0.625 to 5 uM by Western blot analysis; type: functional, cell-based; details: dose 0.625-5 µM
[21] = Metabolic stability in human hepatocyte assessed as intrinsic clearance at 10 uM by LC-MS/MS analysis; type: ADME, cell-based; details: hepatocytes, read-out: CLH
Homo sapiens [22] = organism: Homo sapiens; assay: Selectivity ratio of IC50 for human HDAC5 to IC50 for human HDAC6
PC-3 [23] = assay: Antitumor activity against human PC-3 cells xenografted in athymic nude mouse assessed as tumor growth inhibition at 100 mg/kg, po qd measured upto 25 days by caliper method relative to control; type: functional; details: PC-3, 600 h, time <= 25 day, read-out: TGI
PC-3 [24] = assay: Induction of cell death in LSD1 knockdown human PC-3 cells assessed as activation of procaspase-3 at 1.25 to 10 uM by Western blot analysis; type: functional, cell-based; details: dose 1.25-10 µM
DU-145 [25] = assay: Induction of H3K4ME2 accumulation in human DU-145 cells at 0.5 to 10 uM incubated for 48 hrs by Western blot analysis; type: functional, cell-based; details: dose 0.5-10 µM

- half-life [1]: 486 min
- bioavailability [2]: 62.1%
- Tmax [3]: 54 min
- IC50 (Histone deacetylase 4): > 10 µM
- Ratio IC50 (Homo sapiens [4]): 18.7
- remaining at 10 µM [5]: 100%
- Ratio IC50 (Homo sapiens [6]): 84
- Ratio IC50 (Homo sapiens [7]): > 500
- half-life at 10 µM [8]: 217 min
- Ratio IC50 (Homo sapiens [10]): 10.5
- remaining at 4 h, 10 µM [11]: 83.3%
- half-life at 10 µM [13]: 93.3 min
- AUC(0-inf) [14]: 113 ng·h/mL
- Cmax [15]: 257 ng/mL
- IC50 (Histone deacetylase 8): 210 nM
- Ratio IC50 (Homo sapiens [16]): > 500
- Tmax [17]: 30 min
- Ratio IC50 (Homo sapiens [18]): > 500
- CLint scaled at 10 µM [21]: 9.78 mL/min/kg
- Ratio IC50 (Homo sapiens [22]): 670
Compound: C#CCN(C)Cc1cccc(NC(=O)CCCCCCC(=O)NO)c1
- Activity (HUVEC): Non-Toxic
- Activity (PC-3 [9]): Active
- Activity (PC-3 [12]): Active
- Activity (PC-3 [19]): Active
- Activity (DU-145 [20]): Active
- inhibition in vivo at 100 mg/kg (PC-3 [23]): 53.1%
- Activity (PC-3 [24]): Active
- Activity (DU-145 [25]): Active
